Data as given in PubChem BioAssay AID262 (DTP/NCI, 2004).
Where “and” joins values, the source holds several entries; their conditions need not be identical. Identical values can stand only once.

Tested on: LX-1 lung xenograft sc, nude mice, tumor weight
Assay: NCI In Vivo Anticancer Drug Screen. Data for tumor model Human Lung LX-1 Xenograft (subcutaneous) in NU/NU Swiss (nude) mice
Details: endpoint: optimum tumor weight change, higher = larger tumour
Description: The antitumor activity of compounds was measured in mice bearing transplantable tumors. Survival or tumor size were measured and the results are expressed as the measurement made in the treated group (T) divided by the measurement made in the vehicle treated control group (C). The tumor model used in this assay is Human Lung LX-1 Xenograft (subcutaneous) in NU/NU Swiss (nude) mice

[1] = dose: 100.0 mg/kg/injection, schedule: Q04DX003 (ip), vehicle: Klucel (hydroxypropylcellulose) (HPC)
[2] = dose: 50.0 mg/kg/injection, schedule: Q04DX003 (ip), vehicle: Klucel (hydroxypropylcellulose) (HPC)
[3] = dose: 200.0 mg/kg/injection, schedule: Q04DX003 (ip), vehicle: suspension in saline
[4] = dose: 100.0 mg/kg/injection, schedule: Q04DX003 (ip), vehicle: suspension in saline
[5] = dose: 25.0 mg/kg/injection, schedule: Q04DX003 (ip), vehicle: saline
[6] = dose: 50.0 mg/kg/injection, schedule: Q04DX003 (ip), vehicle: saline
[7] = dose: 100.0 mg/kg/injection, schedule: Q04DX003 (ip), vehicle: saline
[8] = dose: 25.0 mg/kg/injection, schedule: Q04DX003 (ip), vehicle: Klucel (hydroxypropylcellulose) (HPC)
[9] = dose: 200.0 mg/kg/injection, schedule: Q04DX003 (ip), vehicle: saline with Tween-80
[10] = dose: 200.0 mg/kg/injection, schedule: Q04DX003 (ip), vehicle: saline
[11] = dose: 400.0 mg/kg/injection, schedule: Q04DX003 (ip), vehicle: suspension in saline
[12] = dose: 25.0 mg/kg/injection, schedule: Q04DX003 (ip), vehicle: saline with Tween-80
[13] = dose: 50.0 mg/kg/injection, schedule: Q04DX003 (ip), vehicle: saline with Tween-80
[14] = dose: 100.0 mg/kg/injection, schedule: Q04DX003 (ip), vehicle: saline with Tween-80
[15] = dose: 12.5 mg/kg/injection, schedule: Q04DX003 (ip), vehicle: Klucel (hydroxypropylcellulose) (HPC)

`N/C(=N\O)c1cn(C2OC(CO)C(O)C2O)c2ncnc(N)c12` (stereo not given) was tested, and the T/C (dose: 5.0 mg/kg/injection, schedule: Q04DX003 (ip), vehicle: Klucel (hydroxypropylcellulose) (HPC)) was 70 % of control, the T/C (dose: 10.0 mg/kg/injection, schedule: Q04DX003 (ip), vehicle: Klucel (hydroxypropylcellulose) (HPC)) was 68 % of control and the T/C (dose: 20.0 mg/kg/injection, schedule: Q04DX003 (ip), vehicle: Klucel (hydroxypropylcellulose) (HPC)) was 62 % of control.
In the case of `COc1cccc2c1C(=O)c1c(O)c3c(c(O)c1C2=O)C[C@@](O)(C(=O)CO)C[C@@H]3OC1CC(N)CC(C)O1` (stereo not given in full), the T/C (dose: 0.4 mg/kg/injection, schedule: Q04DX003 (ip), vehicle: water) is reported as 67 % of control, the T/C (dose: 0.79 mg/kg/injection, schedule: Q04DX003 (ip), vehicle: water) is reported as 109 % of control and the T/C (dose: 1.57 mg/kg/injection, schedule: Q04DX003 (ip), vehicle: water) is reported as 99 % of control. The T/C (dose: 3.13 mg/kg/injection, schedule: Q04DX003 (ip), vehicle: water) was 90 % of control.
For `CS(=O)(=O)OCCN(CCOS(C)(=O)=O)c1ccc(C=Nc2ccc(-c3csc(COc4ccccc4)n3)cc2)cc1`, the T/C [1] was 82 % of control.
`Oc1cc2c3c(c1)c1cc4c(cc1c[n+]3CC2)OCO4` was tested, and the T/C (dose: 12.5 mg/kg/injection, schedule: Q04DX003 (ip), vehicle: water) was 78 % of control, the T/C (dose: 25.0 mg/kg/injection, schedule: Q04DX003 (ip), vehicle: water) was 63 % of control and the T/C (dose: 50.0 mg/kg/injection, schedule: Q04DX003 (ip), vehicle: water) was 62 % of control.
For `O=S(CCCl)CCCl`, the T/C [2] was 61 % of control.
`O=NN(CCCl)C(=O)NC1CCC(=O)NC1=O` (stereo not given) was tested, and the T/C (dose: 5.0 mg/kg/injection, schedule: Q04DX003 (ip), vehicle: saline with Tween-80) was 49 % of control.
For `CN(CO)c1nc(N(C)CO)nc(N(C)CO)n1`, the T/C (dose: 25.0 mg/kg/injection, schedule: Q01DX005 (ip), vehicle: saline) was 79 % of control and 226 % of control, the T/C (dose: 25.0 mg/kg/injection, schedule: Q04DX005 (ip), vehicle: saline) was 114 % of control and the T/C (dose: 50.0 mg/kg/injection, schedule: Q01DX005 (ip), vehicle: saline) was 59 % of control and 73 % of control. The T/C (dose: 50.0 mg/kg/injection, schedule: Q04DX005 (ip), vehicle: saline) was 79 % of control and 84 % of control, the T/C (dose: 50.0 mg/kg/injection, schedule: Q07DX005 (ip), vehicle: saline) was 29 % of control and the T/C (dose: 100.0 mg/kg/injection, schedule: Q01DX005 (ip), vehicle: saline) was 102 % of control and 122 % of control. The T/C (dose: 100.0 mg/kg/injection, schedule: Q04DX005 (ip), vehicle: saline) was 93 % of control, the T/C (dose: 100.0 mg/kg/injection, schedule: Q07DX005 (ip), vehicle: saline) was 26 % of control and 33 % of control and the T/C (dose: 200.0 mg/kg/injection, schedule: Q01DX005 (ip), vehicle: saline) was -5 % of control. For the same compound, the T/C (dose: 200.0 mg/kg/injection, schedule: Q07DX005 (ip), vehicle: saline) was 49 % of control and 55 % of control.
`O=CC(S)CO` (stereo not given) was tested, and the T/C [3] was 99 % of control.
For `CC(CN1CC(=O)NC(=O)C1)N1CC(=O)NC(=O)C1` (stereo not given), the T/C (dose: 50.0 mg/kg/injection, schedule: Q04DX003 (ip), vehicle: suspension in saline) was 70 % of control and the T/C [4] was 53 % of control.
In the case of `CCCC(=O)OCc1cc(=O)n(C)c2c3c4c(cc12)c(C)cc(=O)n4CO3`, the T/C [2] is reported as 116 % of control.
For `NC(=O)c1ccc[n+](Cc2c(Cl)cccc2Cl)c1`, the T/C (dose: 24.0 mg/kg/injection, schedule: Q04DX003 (ip), vehicle: saline) was 47 % of control and the T/C (dose: 48.0 mg/kg/injection, schedule: Q04DX003 (ip), vehicle: saline) was 68 % of control.
With `CNC(=O)ON(C(C)=O)C(=O)NC` the T/C (dose: 12.5 mg/kg/injection, schedule: Q04DX003 (ip), vehicle: saline) was 94 % of control, the T/C [5] was 103 % of control and the T/C [6] was 71 % of control. For the same compound, the T/C [7] was 60 % of control.
With `OC(CBr)C(O)C(O)C(O)CBr` (stereo not given) the T/C [8] was 98 % of control and the T/C [2] was 66 % of control.
`NC(=S)N/N=C/c1ccc(O)cn1` was tested, and the T/C [9] was 64 % of control and the T/C (dose: 400.0 mg/kg/injection, schedule: Q04DX003 (ip), vehicle: saline with Tween-80) was 76 % of control.
`CCC1=C[C@H]2CN(CCc3c([nH]c4ccccc34)[C@@](C(=O)OC)(c3cc4c(cc3OC)N(C)[C@H]3[C@@](O)(C(=O)NC)[C@H](OC(C)=O)[C@]5(CC)C=CCN6CC[C@]43[C@@H]65)C2)C1` was tested, and the T/C (dose: 0.25 mg/kg/injection, schedule: Q04DX003 (ip), vehicle: water) was 69 % of control, the T/C (dose: 0.5 mg/kg/injection, schedule: Q04DX003 (ip), vehicle: water) was 40 % of control and the T/C (dose: 1.0 mg/kg/injection, schedule: Q04DX003 (ip), vehicle: water) was 98 % of control.
For `COC(OC(CO)C(O)S(=O)(=O)O)C(O)S(=O)(=O)O` (stereo not given), the T/C [10] was 45 % of control, the T/C [3] was 89 % of control and the T/C [11] was 82 % of control. The T/C (dose: 800.0 mg/kg/injection, schedule: Q04DX003 (ip), vehicle: suspension in saline) was 41 % of control.
With `CC(C)CCCCCCCCCCCCC(=O)NCC(=O)NC1C(C)OC(Nc2ncnc3nc[nH]c23)C(O)C1O` (stereo not given) the T/C (dose: 6.25 mg/kg/injection, schedule: Q04DX003 (ip), vehicle: saline with Tween-80) was 34 % of control.
With `Nc1cc2[nH]cnc2c(=O)[nH]1` the T/C [6] was 96 % of control, the T/C [7] was 123 % of control and the T/C [10] was 112 % of control.
`COc1cccc2c1C(=O)c1c(O)c3c(c(O)c1C2=O)C[C@@](O)(C(=O)CO)C[C@@H]3OC1CC(N)C(O)C(C)O1` (stereo not given in full) was tested, and the T/C (dose: 4.0 mg/kg/injection, schedule: Q04DX003 (ip), vehicle: water) was 81 % of control.
In the case of `COc1cc([C@@H]2c3cc4c(c(O)c3C[C@H]3COC(=O)[C@@H]32)OCO4)cc(OC)c1OC`, the T/C (dose: 2.5 mg/kg/injection, schedule: Q04DX003 (ip), vehicle: saline) is reported as 107 % of control, the T/C (dose: 5.0 mg/kg/injection, schedule: Q04DX003 (ip), vehicle: saline) is reported as 73 % of control and the T/C (dose: 10.0 mg/kg/injection, schedule: Q04DX003 (ip), vehicle: saline) is reported as 86 % of control. For the same compound, the T/C (dose: 20.0 mg/kg/injection, schedule: Q04DX003 (ip), vehicle: saline) was 64 % of control.
With `CCN(CC)CCCC(C)Nc1c2ccc(Cl)cc2nc2ccc(OC)cc12` (stereo not given) the T/C [12] was 119 % of control, the T/C [13] was 99 % of control and the T/C [14] was 108 % of control.
For `CN(C)N=Nc1cn[nH]c1C(N)=O`, the T/C [2] was 2 % of control, the T/C (dose: 200.0 mg/kg/injection, schedule: Q04DX003 (ip), vehicle: Klucel (hydroxypropylcellulose) (HPC)) was 53 % of control and the T/C (dose: 400.0 mg/kg/injection, schedule: Q04DX003 (ip), vehicle: Klucel (hydroxypropylcellulose) (HPC)) was -43 % of control.
In the case of `O=C[C@@H](CO)O[C@H](C=O)n1cnc2c(=O)[nH]cnc21`, the T/C [4] is reported as 92 % of control, the T/C [3] is reported as 73 % of control and the T/C [11] is reported as 62 % of control.
In the case of `O=[N+]([O-])/C=C\c1ccc2c(c1)OCO2`, the T/C [15] is reported as 89 % of control, the T/C [8] is reported as 63 % of control and 88 % of control and the T/C [2] is reported as 64 % of control and 73 % of control. The T/C [1] was 103 % of control.
`CN(C)N=Nc1cccc(C(N)=O)c1` was tested, and the T/C [15] was 98 % of control and the T/C [8] was 36 % of control.
With `COc1ccc(C(N)=O)cc1N=NN(C)C` the T/C (dose: 18.75 mg/kg/injection, schedule: Q04DX003 (ip), vehicle: Klucel (hydroxypropylcellulose) (HPC)) was 60 % of control.
`CC(C)CCCCCCCCCCCCC(=O)NCC(=O)NC1C(O)C(O)C(Nc2ncnc3nc[nH]c23)OC1C(O)CO` (stereo not given) was tested, and the T/C (dose: 3.0 mg/kg/injection, schedule: Q04DX003 (ip), vehicle: suspension in saline) was 81 % of control and the T/C (dose: 12.0 mg/kg/injection, schedule: Q04DX003 (ip), vehicle: suspension in saline) was 34 % of control.
`CC(=O)OCC1OC(n2cc(CBr)nn2)C(OC(C)=O)C(OC(C)=O)C1OC(C)=O` (stereo not given) was tested, and the T/C [12] was 169 % of control, the T/C [13] was 61 % of control and the T/C [14] was 107 % of control. For the same compound, the T/C [9] was 110 % of control.
With `OCC1OC(n2cnc3cncnc32)C(O)C1O` (stereo not given) the T/C [5] was 83 % of control.
In the case of `N[C@@H](Cc1ccc(N(CCCl)CCCl)cc1)C(=O)O`, the T/C (dose: 4.0 mg/kg/injection, schedule: Q04DX003 (ip), vehicle: suspension in saline) is reported as 81 % of control and 87 % of control and the T/C (dose: 8.0 mg/kg/injection, schedule: Q04DX003 (ip), vehicle: suspension in saline) is reported as 56 % of control.
With `O=C1N(Cl)C(=O)C(c2ccc(Cl)cc2)(c2ccc(Cl)cc2)N1Cl` the T/C [14] was 66 % of control and the T/C [9] was 42 % of control.
